The compounds below were run on P. falciparum 3D7 growth, pLDH absorbance (assay: P. falciparum 3D7 growth inhibition, dose response, strain 3D7 (AID 2305)).
Compound `CCNc1cc(C(=O)N[C@@H](Cc2ccccc2)[C@H](O)CNCCc2ccccc2)cc(N2CCCC2=O)c1` has an IC50 of 840 nM.
In the case of `N#Cc1ccnc(-c2ccc(CNC3CCN(CC4Cn5c(=O)ccc6ccc(F)c4c65)CC3)cc2)c1` (centres undefined), the IC50 is reported as 1220 nM.
`COc1ccc2c(NN=Cc3cccc([N+](=O)[O-])c3)cc(C)nc2c1` showed an IC50 of 560 nM.
In the case of `CCNc1cc(C(=O)N[C@@H](Cc2ccccc2)[C@H](O)CNC(CC)c2cccc(Cl)c2)cc(N2CCCC2=O)c1` (some centres undefined), the IC50 is reported as 30 nM.
With `O=C(Nc1ccsc1)Nc1cccc(-c2cccc(-c3nc4ccc(F)cc4[nH]3)c2)c1` the IC50 was 200 nM.
`CN1CCCc2cc(NC(=O)C=Cc3ccc(-c4ccc(F)cc4F)o3)ccc2C1` was tested, and the IC50 was 780 nM.
Work on `Cc1cccc2[nH]c(-c3ccc(-c4cccc(CNCCNC(=O)c5ccnn5C)c4)cc3)nc12` yielded an IC50 of 400 nM.
`CN1CCN(CC(=O)Nc2ccc(-c3ccc(-c4nc5ccc(C(F)(F)F)cc5[nH]4)s3)cc2)CC1` gave an IC50 of 570 nM.
For `Cc1[nH]c(C)c(-c2ccc(Oc3cccc(Cl)c3)cc2)c(=O)c1Br`, the IC50 was 30 nM.
Work on `CC(C)Sc1nc2c(c(=O)n1CCc1ccccc1)C1(CCCCC1)Cc1ccccc1-2` yielded an IC50 of 1870 nM.
For `CCc1nc(N)nc(N)c1-c1ccccc1`, the IC50 was 1180 nM.
Compound `COc1ccc(CNCc2ccc(F)cc2)cc1-c1ccc(S(=O)(=O)NCCN2CCCC2)c(C)c1` has an IC50 of 730 nM.
`CCCCCN1CCCN(Cc2cccc(NC(=O)c3cc4ccccc4s3)c2)CC1` was tested, and the IC50 was 590 nM.
With `Cc1cc(N[C@@H](CC(C)C)C(=O)NCCOc2ccccc2)nc(Nc2ccccc2)n1` the IC50 was 1110 nM.
`Cc1cc(Cl)c(S(=O)(=O)N(C)c2ccccc2)cc1OCC(=O)NC1CCCCC1` showed an IC50 of 300 nM.
Compound `CCOc1ccc2c(c1)C(C)(c1ccc3c(c1)C(C)CC(C)(C)N3)CC(C)(C)N2` (centres undefined) has an IC50 of 800 nM.
`O=C(/C=C/c1ccc(Cl)c(Cl)c1)N1CCN(C(=O)Nc2ccc(C(F)(F)F)cc2)CC1` gave an IC50 of 670 nM.
In the case of `CC(C)COc1ccc(Cl)cc1Cc1ccc(-c2nc3c(cnc4ccccc43)[nH]2)o1`, the IC50 is reported as 1260 nM.
`Oc1c(CN2CCC(Cc3ccccc3)CC2)cc(Cl)c2cccnc12` showed an IC50 of 880 nM.
For `CC(=O)N(C)c1cccc(C(=O)Nc2cccc(-c3cccc(-c4nc5c(C)cccc5[nH]4)c3)c2)c1`, the IC50 was 620 nM.
`O=C(Nc1ccc([N+](=O)[O-])cc1Cl)c1cc(Br)cc(Cc2ccccc2)c1O` was tested, and the IC50 was 1290 nM.
With `COc1cc2nc(N3CCC(CNC(=O)c4ccc(-c5ccc(C(=O)N(C)C)cc5OCCN(C)C)cc4)CC3)nc(N)c2cc1OC` the IC50 was 840 nM.
In the case of `Cc1cccc2[nH]c(-c3ccc(-c4ccc(NC(=O)Nc5ccc(F)c(F)c5F)cc4)cc3)nc12`, the IC50 is reported as 270 nM.
`CCC(C)NC(=O)CN1CN(c2ccccc2)C2(CCN(C(=O)c3ccc4ccccc4c3)CC2)C1=O` (centres undefined) showed an IC50 of 630 nM.
`CCOc1cc(C(=O)Nc2cccnc2)ccc1-c1nc2cc(Cl)c(Cl)cc2[nH]1` was tested, and the IC50 was 1010 nM.
In the case of `Cc1cccc2[nH]c(-c3ccc(-c4ccc(CN5CCCCC5)cc4)s3)nc12`, the IC50 is reported as 520 nM.
`CCCS(=O)(=O)c1nc(S(=O)(=O)c2ccc(Cl)cc2)c(N2CCCCC2)s1` showed an IC50 of 1290 nM.
`CNC(=O)C(C)N(c1ccc(Cl)cc1)c1nc(C(C)(C)C)cs1` (centres undefined) showed an IC50 of 740 nM.
In the case of `COC(=O)c1sc(-c2ccc(Cl)cc2)cc1N(CCCN1CCC(N2CCCCC2)CC1)S(=O)(=O)c1ccc(C)cc1`, the IC50 is reported as 740 nM.
`CN(C)Cc1ccc(-c2ccc3c(Nc4ccc(Cl)cc4F)ccnc3c2)o1` showed an IC50 of 240 nM.
`CCOC(=O)NC1=NC(C)(C)N(OCc2ccc(Cl)c(Cl)c2)C(N)=N1` showed an IC50 of 40 nM.
`COc1nc2c(CCN3CCC(NCc4ccc5c(c4)NCCO5)CC3)c(Cl)cnc2cc1F` gave an IC50 of 180 nM.
`Cn1c(=N)cc(-c2ccc(Br)cc2)c2c(=O)[nH]c(N)nc21` was tested, and the IC50 was 1130 nM.
`O=C(Nc1ccc(C(F)(F)F)cc1)c1ccc(S(=O)(=O)NC2CCN(CC3CCCCC3)C2)cc1` (centres undefined) was tested, and the IC50 was 720 nM.
Compound `O=C(NCCCN1CCOCC1)c1ccc(-c2cccc(NC(=O)c3ccc(Cl)c(Cl)c3)c2)cc1` has an IC50 of 680 nM.
Work on `CCCCCCC(C)c1cc(OCCN(CC)CC)c2c(c1)OC(C)(C)C=C2c1ccncc1` (centres undefined) yielded an IC50 of 1260 nM.
`CC(C)(C)OC(=O)Nc1cccc(-c2csc(N=C(N)N)n2)c1` gave an IC50 of 840 nM.
`Cc1cnc(C(=O)Nc2cccc(-c3cccc(-c4nc5c(C)cccc5[nH]4)c3)c2)cn1` was tested, and the IC50 was 580 nM.
Work on `Cc1cc(F)ccc1Nc1nc(N(C)c2ccccc2)c2cc(OCCN(C)C)ccc2n1` yielded an IC50 of 790 nM.
In the case of `COc1ccc(CNCc2ccc(F)cc2)cc1-c1ccc(S(=O)(=O)NCCN2CCCC2)s1`, the IC50 is reported as 710 nM.
In the case of `O=C(NCc1ccc(Cl)cc1)c1ccc(C(=O)NCC2CCCN2CC2CCCCC2)cc1` (centres undefined), the IC50 is reported as 850 nM.
`CCNC(=O)Nc1cccc(-c2cccc(-c3nc4ccc(C(F)(F)F)cc4[nH]3)c2)c1` was tested, and the IC50 was 680 nM.
`COc1ccc(CC2(c3ccc(F)cc3)N=C(N)N(CCCc3ccccc3)C2=O)cc1` (centres undefined) was tested, and the IC50 was 610 nM.
`O=C(/C=C/c1ccc(Cl)c(Cl)c1)N1CCN(C(=O)Nc2cccc(C(F)(F)F)c2)CC1` gave an IC50 of 700 nM.
For `CCO[C@H]1CN[C@H](C#Cc2cc3c(Nc4ccc(OCc5cccc(F)c5)c(Cl)c4)ncnc3s2)C1`, the IC50 was 940 nM.
`Cn1nccc1C(=O)NCCNCc1ccc(-c2cccc(-c3nc4ccc(F)cc4[nH]3)c2)cc1` showed an IC50 of 220 nM.
For `COc1ccc(N2CCN(CCCCNC(=O)c3ccc(NC(=O)c4cc(Cl)cc(Cl)c4)cc3)CC2)c(OC)c1`, the IC50 was 300 nM.
In the case of `Cc1ccc(S(C)(=O)=O)cc1/C=C/C(=O)O`, the IC50 is reported as 870 nM.
With `N#Cc1ccc2c(c1)CCN(CCC1CCC(NC(=O)Nc3ccncc3)CC1)C2` (centres undefined) the IC50 was 1130 nM.
`N#Cc1cccc(NC(=O)Nc2ccc(-c3cccc(-c4nc5ccc(F)cc5[nH]4)c3)cc2)c1` gave an IC50 of 270 nM.
With `CCOc1cc(C(=O)Nc2cccnc2)cc(Br)c1OCCC(C)C` the IC50 was 1080 nM.
`Cc1ccc2c(=O)n(C)c(=O)n(C)c2n1` was tested, and the IC50 was 820 nM.
`Cc1cc(CNCC2CCC(CNCCCc3ccccc3)CC2)ccc1O` (centres undefined) showed an IC50 of 870 nM.
In the case of `CCOc1cc(C(=O)NC2CCN(Cc3ccccc3)CC2)ccc1-c1nc2ccc(Cl)cc2[nH]1`, the IC50 is reported as 430 nM.
Work on `COc1cc2nc(NCc3nc4ccccc4[nH]3)nc(N)c2cc1OC` yielded an IC50 of 890 nM.
For `CCOC(=O)c1cc(C(=O)NCCCCN2CCC(c3ccc(CC)cc3OCC)CC2)ccc1-c1ccc(C(F)(F)F)cc1`, the IC50 was 610 nM.
In the case of `OCC1CCN(Cc2ccc(-c3ccc(-c4nc5ccccc5[nH]4)cc3)cc2)CC1`, the IC50 is reported as 900 nM.
With `Cc1ccc2nc(C)cc(NN=Cc3ccccc3Cl)c2c1` the IC50 was 750 nM.
`CN1CCC(N(C)C(=O)C=Cc2cn(-c3ccccc3)nc2-c2cc3ccccc3o2)CC1` showed an IC50 of 1340 nM.
For `O[C@@H](c1ccccc1)[C@@H]1CN(CCC2C[C@@H]3CC[C@H]2C3)CC[C@@]1(O)c1ccccc1` (some centres undefined), the IC50 was 350 nM.
`CC(=O)Nc1cccc(C(=O)Nc2cccc(-c3ccc(-c4nc5ccc(F)cc5[nH]4)cc3)c2)c1` was tested, and the IC50 was 760 nM.
`Cc1cc(N[C@@H](CC(C)C)C(=O)NCCOc2ccccc2)nc(NCCc2ccc(F)cc2)n1` was tested, and the IC50 was 1290 nM.
`CC(C)CNCc1ccc(-c2ccc(CN(C(=O)Nc3ccccc3)C3CCN(Cc4ccccc4)CC3)cc2)cc1` was tested, and the IC50 was 680 nM.
Work on `CC(Cc1ccc(NC(=O)c2ccc(NCCc3ccccc3)cc2)cc1)NCCc1cccc(Cl)c1` (centres undefined) yielded an IC50 of 850 nM.
`O=C(/C=C/c1ccc(Cl)cc1)NCCCCCN1CCCN(C(=O)Nc2cccc(Cl)c2)CC1` showed an IC50 of 1000 nM.
`CC1(C)[C@H]2CC[C@]1(C)CN(CC(O)Cn1c3ccccc3c3cc(I)ccc31)C2` (some centres undefined) was tested, and the IC50 was 1160 nM.
`COc1cccc(C(=O)OC2=C3CCC(=O)C3(C)CCC2=O)c1` (centres undefined) showed an IC50 of 80 nM.
`COc1ccc(CNCc2ccc(-c3ccc(-c4nc5ccc(C(F)(F)F)cc5[nH]4)cc3)cc2)cc1` showed an IC50 of 130 nM.
Compound `Clc1ccc(OCc2ccccc2)c(Cc2ccc(-c3nc4ccncc4[nH]3)o2)c1` has an IC50 of 750 nM.
`Cc1[nH]c(C)c(-c2ccc(-c3cccc(Cl)c3)nc2)c(=O)c1Br` showed an IC50 of 320 nM.
`COc1cc2c(cc1OC)C(c1ccc(Br)cc1)CN(C)CC2` (centres undefined) gave an IC50 of 940 nM.
`CC1(C)N=C(N)N=C(N)N1OCCCOc1cccc(C(=O)O)c1` showed an IC50 of 40 nM.
`c1ccc(COc2ccc(COc3ccc(Cn4ccnc4)cc3)cc2)cc1` was tested, and the IC50 was 950 nM.
`CN(C)CCC1CCN(CCS(=O)(=O)c2cccc(Nc3ccc(-c4cccc(F)c4)cn3)c2)CC1` gave an IC50 of 1070 nM.
`O=c1ccc2ccc(F)c3c2n1CC3CN1CCC(NCc2cccc(-c3cccs3)c2)CC1` (centres undefined) was tested, and the IC50 was 830 nM.
Work on `O=c1cc(NCCCNCc2[nH]c3cc(Cl)cc(Cl)c3c2Cn2cccn2)[nH]c2ccccc12` yielded an IC50 of 970 nM.
In the case of `CC(C)(C)NC(=O)COC(=O)c1c2c(nc3ccccc13)C(=Cc1ccc3c(c1)OCO3)CCC2`, the IC50 is reported as 740 nM.
For `Cc1cccc2[nH]c(-c3ccc(-c4cccc(CNCCCN5CCCC5=O)c4)cc3)nc12`, the IC50 was 840 nM.
`O=C(NCC1CCN(Cc2cccc(C(F)(F)F)c2)C1)c1cc(-c2cccc(F)c2)cs1` (centres undefined) gave an IC50 of 1180 nM.
`c1ccc(Oc2ccc(Nc3ccnc4ccc(-c5ccco5)cc34)cc2)cc1` was tested, and the IC50 was 930 nM.
Work on `Cc1cc(N(C)CCN(C)C)nc(Nc2ccc(Br)cc2)n1` yielded an IC50 of 800 nM.
In the case of `COc1ccc2c(NCCc3ccccc3)cc(-c3ccccc3)nc2c1`, the IC50 is reported as 990 nM.
`O=C1NC(c2ccc(N3CCCCCC3)cc2)Nc2ccccc21` (centres undefined) was tested, and the IC50 was 570 nM.
For `CN1CCCc2ccc(NC(=O)c3ccc(-c4cc(C(F)(F)F)nn4C)s3)cc2C1`, the IC50 was 880 nM.
`COc1ccc(C2NCCc3c2[nH]c2ccccc32)cc1CN1CCN(c2ccc(F)cc2)CC1` (centres undefined) gave an IC50 of 780 nM.
In the case of `COc1cc(Nc2ncc3c(C)nc(-c4cc5ccccc5[nH]4)n3n2)cc(OC)c1OC`, the IC50 is reported as 1020 nM.
`COc1ccc(Nc2nc(NCc3cccnc3)cc(-c3ccc(OC)cc3)n2)cc1` showed an IC50 of 1400 nM.
Work on `COc1ccc(NC(=O)N2CCN(CCCCCNC(=O)/C=C/c3ccc(C(F)(F)F)cc3)CC2)cc1Cl` yielded an IC50 of 860 nM.
`c1ccc(Oc2ccc(Nc3ccnc(Nc4ccc(CN5CCOCC5)cc4)n3)cc2)cc1` showed an IC50 of 940 nM.
Work on `Cc1cc(N2CCCN(CC3CCCCC3)CC2)nc(Nc2ccc(Br)cc2)n1` yielded an IC50 of 940 nM.
`CCCCCN1CCC(NS(=O)(=O)c2cccc(C(=O)Nc3ccc(C(F)(F)F)cc3)c2)C1` (centres undefined) was tested, and the IC50 was 800 nM.
In the case of `CC(C)(C)CCOC(=O)N1CCc2c(cc(O)c(O)c2Cl)C(c2ccc(O)cc2)C1` (centres undefined), the IC50 is reported as 750 nM.
In the case of `O=C(Nc1ccc(I)cc1)Nc1ccc(Cn2ncc(N3CCCNCC3)c(Cl)c2=O)cc1`, the IC50 is reported as 1120 nM.
`Cc1cc(NCCC(=O)Nc2ccccc2)nc(NCC2CCCCC2)n1` was tested, and the IC50 was 840 nM.
`CC(C)n1cc2c(ccc3nc(N)nc(N)c32)n1` was tested, and the IC50 was 40 nM.
`CN(C)c1ccc(NC(=O)Nc2ccnc3ccc(Br)cc23)cc1` gave an IC50 of 870 nM.
For `COc1ccc(Nc2nc(NC3CCCC3)cc(-c3ccc(OC)cc3)n2)cc1`, the IC50 was 1030 nM.
For `Cc1cc(N(C)CCCN2CCCCC2)nc(Nc2ccc(Cl)cc2)n1`, the IC50 was 190 nM.
With `O=C(O[C@@H]1CN[C@H](C#Cc2cc3c(Nc4ccc5c(cnn5Cc5ccccc5)c4)ncnc3s2)C1)N1CCCC1` the IC50 was 420 nM.

Reference: PubChem BioAssay AID2305 (GlaxoSmithKline (GSK), 2010)
